What all share (type): cell-based
In test [1] the test system is 3T3-L1 cells. As to the kind of experiment: Oil red staining of lipid vacuoles of adipocytes. To be noted: 0.5% solution at 50 ppm. How it is done:
Undifferentiated 3T3-L1 preadipocyte cell lines were seeded in 8-well Lab-Tek slides (for oil red staining), in 12-well plates (for ATP measurement), in 24-well plates (for cAMP measurement) and in 6-well plates (for glycerol measurement) as well as with DMEM culture medium (4.5 g/l) containing antibiotics. These 3T3-L1 preadipocytes were capable of entering, under certain conditions, the terminal differentiation phase.
Once the 3T3-L1 cells had reached 100% confluence, they were differentiated by putting them into culture in various mediums, over a period of 6 to 8 days.
During the first 2 days, cells were cultured in the presence of IBMX, dexamethasone, and insulin diluted in DMEM culture medium at 4.5 g/l. Then, they were cultured for two days only in the presence of insulin diluted in DMEM culture medium at 4.5 g/l and, finally, the cells were cultivated for 2 to 3 days in culture medium containing exclusively DMEM 4.5 g/l.
Cell differentiation in mature adipocytes was visualized by the appearance of lipid droplets in the cytoplasm of the cells.
The principle of this evaluative test on the effect of peptides rests on a microscopic observation of the number and size of lipid vacuoles of adipocytes after staining. Adipocytes were incubated or not in the presence of the substance to be tested.
3T3-L1 cells, seeded in 8-well Lab-Teks, were treated with the peptide of SEQ ID NO:1, i.e. of sequence Pro-Leu-Asp-Thr-Ala-Lys-Val-Arg-Leu-Gln, representative of the peptide family according to the invention, placed in a 0.5% solution at 50 ppm. The active ingredient was added at various stages of culture: • At the start of the incubation and until the end of adipocyte differentiation (72 hours of culture until 100% confluence, then for the 6 days of differentiation); • 6 hours after incubation and until the end of cell differentiation (66 hours of culture until 100% confluence, then for the 6 days of differentiation); • Once cells differentiated in the adipocytes, they were treated with the active ingredient for 6, 24, or 48 hours. […]

Test [2] has as its system differentiated 3T3-L1 cells. As to the kind of experiment: Measurement of intracellular cAMP. The following applies: 0.5% solution at 50 ppm; 15 minutes, 30 minutes or 1 hour; compared to cells treated with isoproterenol 1 μM. How it is done: The objective of this test was to measure the variation of the intracellular concentration of cAMP in adipocytes, in order to deduce a possible activation of the phenomenon of lipolysis.
The test was carried out on differentiated 3T3-L1 cells. These adipocytes were treated with the peptide of (SEQ ID NO: 1), i.e. of sequence Pro-Leu-Asp-Thr-Ala-Lys-Val-Arg-Leu-Gln, representative of the peptide family according to the invention, placed in a 0.5% solution at 50 ppm, for periods of 15 minutes, 30 minutes, or 1 hour. In parallel, differentiated 3T3-L1 cells were also treated with isoproterenol (an agent that induces lipolysis), at 1 μM, thus forming a positive control.
After the various incubation periods, in the presence of the active ingredient being tested or in the presence of isoproterenol, the quantity of cAMP contained in adipocytes was measured using the “AMP Biotrak® EIA System” kit purchased from Amersham Biosciences as well as by a test principle, colorimetric ELISA. The kit made cell lysis possible through a solution allowing for the hydrolysis of cellular membranes and the release of intracellular cAMP in the medium. Followed by the binding of antibodies specific to intracellular cAMP extracted from samples, which is placed in competition with cAMP that has been coupled to the enzyme, peroxidase.

In test [3] the test system is differentiated 3T3-L1 cells. As to the kind of experiment: Measurement of intracellular ATP. The following applies: 0.5% solution at 50 ppm; period up to 96 hours. How it is done:
The aim of this study was to determine the influence of the peptide according to the invention on the quantity of intracellular ATP. The study was carried out using an “ATP Bioluminescence Assay HS II” kit. Differentiated 3T3-L1 cells were treated with a 0.5% solution at 50 ppm, containing the peptide of SEQ ID NO: 1, representative of the peptide family according to the invention, for a period up to 96 hours. At the end of the incubation time, the wells were emptied of their medium and were rinsed with 2 ml of cold PBS before adding 250 μl of lysis buffer, provided by the kit. The cells were then scraped, and then collected separately in 14 ml tubes. Each well was rinsed with 2×500 μl of cold PBS and everything was again collected in the respective tubes. Each tube was then placed in the polytron for 10 seconds at 18000 rpm. From these samples, a dilution of 1/12000, using cold PBS, was carried out before each reading. ATP quantity assessment was performed on these samples: 50 μl of this dilution were placed in a luma-basin and 50 μl of […] were added. The reading of luminescence started after 10 seconds. The values were standardized compared to the quantity of proteins for each sample. Measurements were taken using a Biocounter M2010A LUMAC®/3M.

In test [4] the test system is differentiated 3T3-L1 cells. Briefly: Measurement of glycerol released by adipocytes. The following applies: active ingredient at 0.5% (solution at 50 ppm); 1 h 30, 3 h, 5 h, 7 h and 24 h; versus control wells. On the procedure:
The purpose of this study was to determine the influence of the peptide according to the invention on glycerol release by adipocytes, glycerol being the result of lipolysis.
Differentiated 3T3-L1 cells were treated with a 0.5% solution at 50 ppm, containing the peptide of SEQ ID NO:1, representative of the peptide family according to the invention, for periods of 1 h 30, 3 h, 5 h, 7 h and 24 h.
The concentration of glycerol was determined using a series of enzymatic reactions leading to the formation of NADH of which the produced quantity was evaluated by spectrophometric readings at 340 nm, the formation of NADH being proportional to the quantity of glycerol released in the culture medium. An internal control of 1 mM glycerol was also used. The values were standardized in comparison to the quantity of proteins for each sample.

Where [5] appears, read: added at the start of incubation or 6 hours after incubation until end of differentiation, compared with control cells.

The text below walks through data of patent US8012938B2, “Dermatological and/or cosmetic composition containing polypeptides” (ISP Investments Inc., priority 2004, dated 2011).

No end group written: not given here.

With “PLDTAKVRLQ [SEQ ID NO:1, peptide fragment from the UCP family]”, in test [1] (setting [5]), the cell morphology entry is “less round morphology” and the “content of intra-adipocyte lipid vesicles” value is reported as “clearly decreased content of intra-adipocyte lipid vesicles”. The “reduction of intra-adipocyte lipid vesicles in mature adipocytes” value in test [1] (applied once differentiation was completed, for 6, 24 or 48 hours) was “no reduction was observed”. Also, in test [2], the “intracellular quantity of cAMP” value is “no increase”. Besides, in test [3], the “amount of intracellular ATP” value is reported as “lack of increase”. Further, the “glycerol release by differentiated cells” value in test [4] is “identical”.
